Experimental data published in US5952189A (priority 1997, dated 1999).
Where “and” joins values, the source holds several entries; their conditions need not be identical. Equal values may be shown once.

Test system: TNF-induced hepatocyte apoptosis
Assay: TNF-induced hepatotoxicity in mice (serum transaminases)
Type: in vivo, Balb/c mice
Settings: for AST: without DK120 78
Experimental: In this example the concept that a protease inhibitor such as DK120 may attenuate inappropriate apoptosis that causes tissue damage in systemic inflammatory response syndrome (SIRS) was tested. TNF-induced hepatocyte apoptosis in mice was performed as described by Leist et al. ((1995) J. Immunol. 154:1778-1786). Briefly, Balb/c mice were injected ip with […] murine TNF combined with […] Actinomycin D/mouse. Twelve h later, mice were anesthetized and bled from the heart to measure serum transaminase levels, which are standard clinically used indicators of liver damage. Mice that were treated with protease inhibitors were injected ip with these compounds 30 min. prior to TNF. Alanine aminotransferase (ALT) and aspartate aminotransferase (AST) were assayed using a commercially available kit (Sigma). […] However, treatment with DK120 caused a doss-dependent decrease in serum transaminase levels. […] However, a drug that nonspecifically blocks all apoptotic pathways that normally function to maintain homeostasis may not be clinically desirable. Subsequent studies were performed to determine if DK120 could also suppress hepatocyte apoptosis in response to a different stimulus.
^1 Mice (2 for each treatment) were injected ip +/- DK120 30 min prio
to TNF and Actinomycin D. Twelve h later serum transaminase levels were
To further explore the specificity of DK120 attenuation of TNF-induced hepatotoxicity, several compounds were tested that were found previously not to inhibit apoptotic protease proteolytic activity as measured against a synthetic substrate (data not shown). […] Therefore, the protection mediated by DK120 is not a property of any boron-containing molecule.
^1 Mice (3 for each treatment) were injected ip +/- the inhibitors 30
min prior to TNF and Actinomycin D. Twelve h later serum transaminase

C[C@H](NC(=O)OCc1ccccc1)C(=O)N[C@@H](C)C(=O)NC(Cc1ccccc1)B(O)O (stereo partly shown) [DK120, carbobenzoxy-ala-ala-borophe]
AST (Table 7, DK120 1 mg/kg ip 30 min prior to Actinomycin D + TNF, 12 h): 64 U/ml | ALT (Table 7, DK120 1 mg/kg ip 30 min prior to Actinomycin D + TNF, 12 h, without DK120 398): 232 U/ml | AST (Table 7, DK120 2.5 mg/kg ip 30 min prior to Actinomycin D + TNF, 12 h): 47 U/ml | ALT (Table 7, DK120 2.5 mg/kg ip 30 min prior to Actinomycin D + TNF, 12 h, without DK120 398): 145 U/ml | ALT (Table 7, DK120 5 mg/kg ip 30 min prior to Actinomycin D + TNF, 12 h, without DK120 398): 123 U/ml | AST (Table 7, DK120 10 mg/kg ip 30 min prior to Actinomycin D + TNF, 12 h): 56 U/ml | ALT (Table 7, DK120 10 mg/kg ip 30 min prior to Actinomycin D + TNF, 12 h, without DK120 398): 50 U/ml | Protection from TNF-induced hepatotoxicity (Table 10, 10 mg/kg): reduced levels of ALT to close to that of Actinomycin D alone | Effect on TNF-induced serum transaminase levels (ip 30 min prior to TNF): reduced transaminase to levels very close to those seen in mice injected with Actinomycin D only | ALT (mouse, in vivo): 190 +/- 21 U/ml and 141 +/- 20 U/ml
